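All cell lines were grown in 96-well plates and treated with compound for 48 hours. Abbreviation: GI50, concentration required for 50% inhibition of growth.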 The source made the active and inactive calls. Rule as the data show it: active = GI50 up to about 1.1 µM and inactive = higher.
Tests used:
Experiment in all cases: NCI tumour cell line growth inhibition, 48 h
[1] = system: NCI-H522
[2] = system: SW-620
[3] = system: UACC-62
[4] = system: SK-MEL-5
[5] = system: SK-MEL-28
[6] = system: HCC 2998
[7] = system: PC-3
[8] = system: HCT-116
[9] = system: HOP-92
[10] = system: MDA-N
[11] = system: T47D
[12] = system: DU-145
[13] = system: NCI-H226
[14] = system: M14
[15] = system: Malme-3M
[16] = system: UO-31
[17] = system: SN12C
[18] = system: SF-268
[19] = system: UACC-257
[20] = system: SR
[21] = system: OVCAR-3
[22] = system: A498
[23] = system: SNB-75
[24] = system: OVCAR-5
[25] = system: LOX IMVI
[26] = system: OVCAR-8
[27] = system: MDA-MB-231
[28] = system: RXF 393
[29] = system: NCI-H460
[30] = system: BT-549
[31] = system: HOP-62
[32] = system: HCT-15
[33] = system: OVCAR-4
[34] = system: Hs-578T
[35] = system: MDA-MB-435
[36] = system: CAKI-1
[37] = system: A549
[38] = system: RPMI-8226
[39] = system: IGROV-1
[40] = system: NCI-H23
[41] = system: MOLT-4
[42] = system: MCF7
[43] = system: NCI/ADR-RES
[44] = system: SK-OV-3
[45] = system: KM12
[46] = system: EKVX
[47] = system: HT-29
[48] = system: SNB-19
[49] = system: 786-0
[50] = system: CCRF-CEM
[51] = system: HL-60
[52] = system: U-251
[53] = system: K562
[54] = system: ACHN
[55] = system: SF-295
[56] = system: COLO 205
[57] = system: SK-MEL-2
[58] = system: SF-539
[59] = system: TK-10

COC(=O)[C@]12CCC(C)(C)C[C@H]1C1=CC[C@@H]3[C@@]4(C)CC[C@H](OC5OC(CO)C(O)C(O)C5OC5OC(CO)C(O)C(O)C5O)C(C)(C)[C@@H]4CC[C@@]3(C)[C@]1(C)CC2 (stereo not given in full)
GI50 [1]: 3.1 µM (inactive) | GI50 [2]: 14.2 µM (inactive) | GI50 [3]: 10.5 µM (inactive) | GI50 [4]: 15.8 µM (inactive) | GI50 [5]: 3.37 µM (inactive) | GI50 [6]: 14.8 µM (inactive) | GI50 [7]: 3.89 µM (inactive) | GI50 [8]: 5.41 µM (inactive) | GI50 [9]: 3.91 µM (inactive) | GI50 [10]: 5.43 µM (inactive) | GI50 [11]: 18.3 µM (inactive) | GI50 [12]: 12 µM (inactive) | GI50 [13]: 3.43 µM (inactive) | GI50 [14]: 3.91 µM (inactive) | GI50 [15]: 11.9 µM (inactive) | GI50 [16]: 3.4 µM (inactive) | GI50 [17]: 4.62 µM (inactive) | GI50 [18]: 13.7 µM (inactive) | GI50 [19]: 7.85 µM (inactive) | GI50 [20]: 7.85 µM (inactive) | GI50 [21]: 10.6 µM (inactive) | GI50 [22]: 11.3 µM (inactive) | GI50 [23]: 13.5 µM (inactive) | GI50 [24]: 16.6 µM (inactive) | GI50 [25]: 6.15 µM (inactive) | GI50 [26]: 15.9 µM (inactive) | GI50 [27]: 2.65 µM (inactive) | GI50 [28]: 5.75 µM (inactive) | GI50 [29]: 14.5 µM (inactive) | GI50 [30]: 17.4 µM (inactive) | GI50 [31]: 12.6 µM (inactive) | GI50 [32]: 12.5 µM | GI50 [33]: 4.43 µM (inactive) | GI50 [34]: 22.5 µM (inactive) | GI50 [35]: 7.6 µM (inactive) | GI50 [36]: 8.81 µM (inactive) | GI50 [37]: 8.83 µM (inactive) | GI50 [38]: 19.3 µM (inactive) | GI50 [39]: 14.4 µM (inactive) | GI50 [40]: 7.08 µM (inactive) | GI50 [41]: 17.5 µM (inactive) | GI50 [42]: 12 µM (inactive) | GI50 [43]: 14.5 µM (inactive) | GI50 [44]: 20.5 µM (inactive) | GI50 [45]: 12.6 µM (inactive) | GI50 [46]: 11.9 µM (inactive) | GI50 [47]: 10.4 µM (inactive) | GI50 [48]: 14.3 µM (inactive) | GI50 [49]: 11.2 µM (inactive) | GI50 [50]: 15.7 µM (inactive) | GI50 [51]: 4.93 µM (inactive) | GI50 [52]: 13.2 µM (inactive) | GI50 [53]: 10.1 µM (inactive) | GI50 [54]: 7.55 µM (inactive) | GI50 [55]: 14.2 µM (inactive) | GI50 [56]: 3.09 µM (inactive) | GI50 [57]: 10.7 µM (inactive)

NCCCCNCCCNC(=O)CNC(=O)CC(O)C(N)CCCC(NC(=O)C(CN)NC(=O)C(O)CNC(=O)CC(N)c1ccc(O)cc1)C(=O)O (stereo not given)
GI50 [1]: > 10 µM (inactive) | GI50 [3]: > 10 µM (inactive) | GI50 [4]: > 10 µM (inactive) | GI50 [5]: > 10 µM (inactive) | GI50 [6]: > 10 µM (inactive) | GI50 [7]: > 10 µM (inactive) | GI50 [8]: > 10 µM (inactive) | GI50 [58]: > 10 µM (inactive) | GI50 [9]: > 10 µM (inactive) | GI50 [10]: > 10 µM (inactive) | GI50 [11]: > 10 µM (inactive) | GI50 [12]: > 10 µM (inactive) | GI50 [13]: > 10 µM (inactive) | GI50 [14]: > 10 µM (inactive) | GI50 [15]: > 10 µM (inactive) | GI50 [16]: > 10 µM (inactive) | GI50 [17]: > 10 µM (inactive) | GI50 [18]: > 10 µM (inactive) | GI50 [19]: > 10 µM (inactive) | GI50 [20]: > 10 µM (inactive) | GI50 [21]: > 10 µM (inactive) | GI50 [22]: > 10 µM (inactive) | GI50 [23]: > 10 µM (inactive) | GI50 [24]: > 10 µM (inactive) | GI50 [25]: > 10 µM (inactive) | GI50 [26]: > 10 µM (inactive) | GI50 [27]: > 10 µM (inactive) | GI50 [28]: > 10 µM (inactive) | GI50 [29]: > 10 µM (inactive) | GI50 [30]: > 10 µM (inactive) | GI50 [31]: > 10 µM (inactive) | GI50 [32]: > 10 µM | GI50 [33]: > 10 µM (inactive) | GI50 [34]: > 10 µM (inactive) | GI50 [35]: > 10 µM (inactive) | GI50 [36]: > 10 µM (inactive) | GI50 [37]: > 10 µM (inactive) | GI50 [38]: > 10 µM (inactive) | GI50 [39]: > 10 µM (inactive) | GI50 [40]: > 10 µM (inactive) | GI50 [41]: > 10 µM (inactive) | GI50 [42]: > 10 µM (inactive) | GI50 [43]: > 10 µM (inactive) | GI50 [44]: > 10 µM (inactive) | GI50 [45]: > 10 µM (inactive) | GI50 [46]: > 10 µM (inactive) | GI50 [47]: > 10 µM (inactive) | GI50 [48]: > 10 µM (inactive) | GI50 [49]: > 10 µM (inactive) | GI50 [59]: > 10 µM (inactive) | GI50 [50]: > 10 µM (inactive) | GI50 [51]: > 10 µM (inactive) | GI50 [52]: > 10 µM (inactive) | GI50 [53]: > 10 µM (inactive) | GI50 [54]: > 10 µM (inactive) | GI50 [55]: > 10 µM (inactive) | GI50 [56]: > 10 µM (inactive) | GI50 [57]: > 10 µM (inactive)
